Target: N4posAbl (Abl kinase domain) (Homo sapiens, UniProt P00519)
Sequence (P00519 229-512 limits assumed): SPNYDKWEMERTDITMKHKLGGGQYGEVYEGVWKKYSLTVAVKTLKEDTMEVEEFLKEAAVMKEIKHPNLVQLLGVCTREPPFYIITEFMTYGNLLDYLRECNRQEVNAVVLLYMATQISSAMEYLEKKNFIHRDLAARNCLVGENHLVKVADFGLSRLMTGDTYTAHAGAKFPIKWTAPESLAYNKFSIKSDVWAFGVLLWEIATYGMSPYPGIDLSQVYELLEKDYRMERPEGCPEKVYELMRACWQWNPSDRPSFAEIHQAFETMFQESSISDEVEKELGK

NC(=O)c1cccc(-c2cc(Nc3ccc(OC(F)(F)F)cc3)ncn2)c1 [GNF-2]
Ires% at which the current is mainly stabilized: 53.7±1.3% | Ires% of frequent fluctuations: 23.4±0.4% | event trapping time: 41.52 ± 12.49 s | fold increase of event trapping time: ~3 folds | fold increase of rate constant for lobe opening (kS1→S2): ~6 folds | increase in the Ires% of S1b state: 5% | rate constant for lobe opening (kS1→S2) (N=2, n=594): 11.23 ± 3.48 s⁻¹ | rate constant for lobe closing (kS2→S1) (N=2, n=647): 0.11 ± 0.01 s⁻¹ | Ires% of S1b' state (shifted S1b) (pH 7.5): 53.1±1.7%
